The text below walks through data of ChEMBL document CHEMBL4613232, “Novel 3,3-disubstituted oxindole derivatives. Synthesis and evaluation of the anti-proliferative activity” (Bioorg Med Chem Lett, 2020).

As a reminder, the IC50 is the midpoint of a concentration-inhibition curve.

The test system of one test is MIA PaCa-2. The experiment in a line: Antiproliferative activity against human MIAPaCa2 cells. The format is functional, cell-based.
The subject of the next test is MCF7. Nature of the test: Antiproliferative activity against human MCF7 cells. Type of test: functional, cell-based.
The subject of a further test is SW-620. Nature of the test: Antiproliferative activity against human SW620 cells. The format is functional, cell-based.
The test system of another test is PC-3. Nature of the test: Antiproliferative activity against human PC3 cells. The format is functional, cell-based.
In the next test the test system is PBMC. Nature of the test: Cytotoxicity against human PBMC assessed as reduction in cell viability. Type of test: cell-based.
The test system of another test is A-375. The experiment in a line: Antiproliferative activity against human A375 cells. Type of test: functional, cell-based.

Molecules are shown by their SMILES.

As for `CCOC(=O)CC1(NC=O)C(=O)N(C(C)=O)c2ccccc21` (centres undefined), the IC50 is > 50 µM with MIA PaCa-2; 30.4 µM in the test on MCF7; > 50 µM with SW-620; 17 µM in the test on PC-3; > 100 µM in the test on PBMC; > 50 µM with A-375.

In the case of `NC1(Cc2ccccc2)C(=O)Nc2ccc(Br)cc21` (centres undefined), the 50% inhibitory concentration (IC50) in the test on MIA PaCa-2 was > 50 µM; with MCF7, > 50 µM; with SW-620 it was > 50 µM; with PC-3 it was > 50 µM; with PBMC, > 100 µM; in the test with A-375 it was > 50 µM.

Regarding `O=C(NC1(Cc2ccccc2)C(=O)Nc2ccc(Br)cc21)c1ccccc1` (centres undefined), the IC50 was > 50 µM with MIA PaCa-2; > 50 µM in the test with MCF7; > 50 µM with SW-620; > 50 µM in the test with PC-3; > 100 µM with PBMC; > 50 µM in the test with A-375.

As for `O=CNC1(Cc2ccccc2)C(=O)Nc2ccc(Br)cc21` (centres undefined), the concentration for half-maximal inhibition (IC50) with MIA PaCa-2 stood at 7.46 µM; in the test with MCF7, 17.7 µM; in the test on SW-620, 9.81 µM; with PC-3, 8.95 µM; in the test with PBMC, 75.3 µM; in the test on A-375, 6.41 µM.

Consider `NC1(Cc2ccccc2)C(=O)Nc2ccccc21` (centres undefined), for which the IC50 in the test with MIA PaCa-2 was 43.1 µM; in the test with MCF7 it was > 50 µM; in the test with SW-620 it was 37.1 µM; in the test on PC-3, > 50 µM; with PBMC, > 100 µM; in the test on A-375, > 50 µM.

As to `CC(=O)N1C(=O)C(Cc2ccccc2)(NC=O)c2ccccc21` (centres undefined), the IC50 is 47 µM in the test on MIA PaCa-2; 14.4 µM with MCF7; > 50 µM with SW-620; 18.2 µM in the test on PC-3; 45.5 µM with PBMC; > 50 µM in the test with A-375.

Regarding `CCCC1(NC(=O)OC)C(=O)Nc2ccccc21` (centres undefined), the 50% inhibitory concentration (IC50) with MCF7 is > 50 µM; with SW-620 it was > 50 µM; in the test on PBMC, > 100 µM; with A-375, > 50 µM.

For `CCOP(=O)(NC1(Cc2ccccc2)C(=O)Nc2ccc(Br)cc21)OCC` (centres undefined), the Activity result in the test with MIA PaCa-2 and with SW-620 was “Dose-dependent effect” in each case. Also, the IC50 in the test on MIA PaCa-2 was 30.2 µM; in the test on MCF7, > 50 µM; with SW-620, 27.7 µM; in the test on PC-3, > 50 µM; in the test on PBMC, 51.8 µM; in the test on A-375 it was > 50 µM.

For the molecule `CCOC(=O)N1C(=O)C(Cc2ccccc2)(NC=O)c2cc(Br)ccc21` (centres undefined), the half-inhibitory concentration (IC50) in the test with MIA PaCa-2 is > 50 µM; in the test on MCF7, > 50 µM; with SW-620 it was > 50 µM; with PC-3, 32.5 µM; in the test on PBMC it was > 100 µM; in the test with A-375 it was > 50 µM.
